From patent publication US20170355686A1, “NOVEL OXAZOLE COMPOUNDS AS BETA CATENIN MODULATORS AND USES THEREOF” (NEW YORK UNIVERSITY, priority 2014, published 2017)

Tested on: Wnt reporter
Assay: Wnt reporter (Super 8X Topflash, TCF promoter) luciferase IC50 assay in STF and STF3A cells
Type: cell-based
Settings: for inhibition of the Wnt reporter: HEK293 cells stimulated with either exogenous (STF) or endogenous Wnt 3a (STF3a); for IC50: range over STF (exogenous Wnt3a, paracrine) and STF3A (endogenous Wnt3a, autocrine) HEK293 cells, 24 hours incubation
Protocol: STF and STF3A cells were cultured in DMEM, 4500 mg/L glucose supplemented with 10% fetal bovine serum, 2 mM L-glutamine, 110 mg/L sodium pyruvate and Penicillin/Streptomycin.
STF cells are HEK293 cells stably expressing the Super 8X Topflash M50 (http://www.addgene.org/12456/; the entire content of which is incorporated herein by reference) reporter. STF3A cells are HEK293 cells stably expressing both Super 8X Topflash reporter and pPGK-mWnt3A. The above cell lines are a gift from David Virshup.
L-Wnt3A cells were cultured in DMEM, 4500 mg/L glucose supplemented with 10% fetal bovine serum and 2 mM L-glutamine and 110 mg/L sodium pyruvate and Penicillin/Streptomycin. Wnt3A-Conditioned media was prepared with L-Wnt3A cells cultured according to recommended protocols from ATCC (http://www.atcc.org/products/all/CRL-2647.aspx#culturemethod).
Unless otherwise indicated, all experiments described herein that call for supplemental Wnt3a utilize Wnt3a conditioned media prepared by harvesting media from L-cells stably transfected with a Wnt3a coding construct (available from ATCC #CRL-2647). The cells are cultured in DMEM containing 10% fetal bovine serum (FBS). The medium, harvested from adherent cells cultured to about 80% confluency over 4 days, is purified through a 0.2 μm filter and stored at 4° C. over several months without an appreciable loss in activity [Willert et al. Nature 423, 448-52 (2003)].
STF and STF3A cells were seeded in 96 well plates, with 20,000 cells in 100 μL media per well. Following 16 hours incubation, 50 μL of media per well containing STF cells were replaced with the same volume of Wnt3A-Conditioned media.
iCRT3 and analogs were tested in triplicates at a concentration range of 50 μM-0.00013 μM, at 5-fold dilutions. Cells were incubated with the compounds for 24 hours.
Cell viability was measured after incubation with 100 μL of PrestoBlue® Cell Viability Reagent in DMEM (1:9) for 30 minutes. Following fluorescence measurements, media containing PrestoBlue reagents was aspirated. Cell were lysed in 60 μL of Dual-Glo® Reagent from the Dual-Glo® Luciferase Assay System. Luciferase activity was quantified with a luminometer after 10 minutes of incubation at room temperature.
Background subtracted luminescence readings (RLU) from the Dual-Glo® Luciferase assay were normalized against background subtracted fluorescence values (RFU) from the PrestoBlue® Cell Viability assay.
The RLU/RFU values were plotted using GraphPad Prism (www.graphpad.com). The curve was fitted with a three parameter curve fitting equation: Y=Min value+(Max value−Min value)/[1+10̂(X−lg IC50)].
Cell lines tested include STF, which are HEK293 cells expressing firefly luciferase under the control of the TCF promoter, and STF3A, which are the same as STF but also expresses Wnt3a constitutively. The two cell lines facilitate the testing of the compounds in the context of Wnt signaling activated in a paracrine (STF) versus autocrine (STF3A) fashion.
Day 0—Seed cells in 96-well plates (20,000 cells per well)
Day 1—Add compounds. For STF cells, half of the medium was also changed to Wnt3a conditioned medium.
Day 2—Measure PrestoBlue (cell viability) and Dual-Glo luciferase (TCF promoter activity).
The concentration range for iCRT3 was 10 μM-0.0000001 μM. All other compounds were tested at a concentration range of 10 μM-0.000026 μM.

Row | IC50 [µM] | SMILES | inhibition of the Wnt reporter
1 | 2 to 8 | CCc1ccc(-c2nc(CSCC(=O)NCCc3cccnc3)c(C)o2)cc1 [II-7] | dose dependent inhibition
2 | 14 to 30 | CCc1ccc(-c2nc(CSCC(=O)NCCc3ccccc3)c(C)o2)cc1 [iCRT3, reference compound] | dose dependent inhibition

Row | SMILES | IC50 [µM] | inhibition of the Wnt reporter
3 | CCc1ccc(-c2nc(CSCC(=O)NCCc3ccc(F)cc3)c(C)o2)cc1 [II-1, 2-[2-(4-ethyl-phenyl)-5-methyl-oxazol-4-ylmethylsulfanyl]-N-[2-(4-fluoro-phenyl)-ethyl]-acetamide] | 2 to 8 | dose dependent inhibition
